# Test results as given in article PMC7255010, “Small-molecule activating SIRT6 elicits therapeutic effects and synergistically promotes anti-tumor activity of vitamin D3 in colorectal cancer” (Theranostics, 2020).
# Where two headings read alike, the source gives them in different places.
# Legend:
# Assay type in all cases: cell-based
# HCT116 = experiment: Cell proliferation, CCK-8; conditions: Homo sapiens, HCT-116
# Method: (§1) Cell proliferation was evaluated using a Cell Counting Kit-8 (CCK-8) (Dojindo) following the manufacturer's instructions. Briefly, CRC cells were plated in 96-well plates at a density of 5 × 10^3 cells per well. […] Cells treated with DMSO were used as the […] controls, and the final DMSO concentration in the medium was 0.1%. After 48 h of treatment, 10 μL of CCK-8 solution was added to every well and incubated for 1 h at 37 °C. Then, a microplate reader (Synergy H4 Hybrid Reader, BioTek) was used to measure the absorbance of the solvent at 450 nm. The background of drug and culture medium has been deducted in each well. The relative cell proliferation of each treatment group was expressed as the percentage change relative to the […] control group. Each data point is the mean ± s.d. of two or three independent experiments.
# NCI-H716 = experiment: Cell proliferation, CCK-8; conditions: Homo sapiens; NCI-H716, CCK8, 48 h
# Method: as §1
# Colo320DM = experiment: Cell proliferation, CCK-8; conditions: Homo sapiens, COLO 320DM, CCK8, 48 h
# Method: as §1
# Colo201 = experiment: Cell proliferation, CCK-8; conditions: Homo sapiens, COLO 201; Colo201, CCK8, 48 h
# Method: as §1
# DLD-1 = experiment: Cell proliferation, CCK-8; conditions: Homo sapiens; DLD-1, CCK8, 48 h
# Method: as §1
# SW1463 = experiment: Cell proliferation, CCK-8; conditions: Homo sapiens; SW1463, CCK8, 48 h
# Method: as §1
# RKO = experiment: Cell proliferation, CCK-8; conditions: Homo sapiens, CCK8, 48 h
# Method: as §1
# Caco2 = experiment: Cell proliferation, CCK-8; conditions: Homo sapiens, Caco-2; Caco2, CCK8, 48 h
# Method: as §1
# LOVO = experiment: Cell proliferation, CCK-8; conditions: Homo sapiens, CCK8, 48 h
# Method: as §1
# T84 = experiment: Cell proliferation, CCK-8; conditions: Homo sapiens; T84, CCK8, 48 h
# Method: as §1
# HCT15 = experiment: Cell proliferation, CCK-8; conditions: Homo sapiens, HCT-15; HCT15, CCK8, 48 h
# Method: as §1
# SW480 = experiment: Cell proliferation, CCK-8; conditions: Homo sapiens; SW480, CCK8, 48 h
# Method: as §1
# SW48 = experiment: Cell proliferation, CCK-8; conditions: Homo sapiens; SW48, CCK8, 48 h
# Method: as §1
# LS1034 = experiment: Cell proliferation, CCK-8; conditions: Homo sapiens, LS-1034; LS1034, CCK8, 48 h
# Method: as §1
# NCI-H508 = experiment: Cell proliferation, CCK-8; conditions: Homo sapiens; NCI-H508, CCK8, 48 h
# Method: as §1
# LS123 = experiment: Cell proliferation, CCK-8; conditions: Homo sapiens, LS-123; LS123, CCK8, 48 h
# Method: as §1
# SW1417 = experiment: Cell proliferation, CCK-8; conditions: Homo sapiens; SW1417, CCK8, 48 h
# Method: as §1
# LS174T = experiment: Cell proliferation, CCK-8; conditions: Homo sapiens, CCK8, 48 h
# Method: as §1
# HCT8 = experiment: Cell proliferation, CCK-8; conditions: Homo sapiens, HCT-8; HCT8, CCK8, 48 h
# Method: as §1
# SKCO1 = experiment: Cell proliferation, CCK-8; conditions: Homo sapiens, SK-CO-1; SKCO1, CCK8, 48 h
# Method: as §1
# Colo205 = experiment: Cell proliferation, CCK-8; conditions: Homo sapiens, COLO 205; Colo205, CCK8, 48 h
# Method: as §1
# HT29 = experiment: Cell proliferation, CCK-8; conditions: Homo sapiens, HT-29; HT29, CCK8, 48 h
# Method: as §1
# SW620 = experiment: Cell proliferation, CCK-8; conditions: Homo sapiens, SW-620; SW620, CCK8, 48 h
# Method: as §1
# 26 CRC cell lines = experiment: Cell proliferation, CCK-8, panel of 26 CRC cell lines; conditions: Homo sapiens, CCK-8, 48 h
# Method: as §1
compound,measurement,setting,value
Cc1cc(F)c(Br)cc1NS(=O)(=O)c1ccc(NS(=O)(=O)c2cc(Cl)cc(Cl)c2)cc1CN1CCOC[C@H]1C [MDL-811],IC50,"HCT116; HCT116, CCK8, 48 h, read-out: IC50 ± s.d.",4.7 ± 0.2 µM
same,IC50,"HCT116; HCT116, CCK-8, 48 h, Figure S6, mean ± s.e.m. of three experiments, read-out: IC50",4.8 ± 0.2 µM
same,IC50,NCI-H716,61 ± 2.3 µM
same,IC50,Colo320DM,33.2 ± 0.9 µM
same,IC50,Colo201,20.3 ± 1.4 µM
same,IC50,DLD-1,18 ± 0.1 µM
same,IC50,SW1463,13 ± 1.5 µM
same,IC50,RKO,12.3 ± 1.8 µM
same,IC50,Caco2,28.7 ± 1.7 µM
same,IC50,LOVO,7.8 ± 0.2 µM
same,IC50,T84,13 ± 1.4 µM
same,IC50,HCT15,20.5 ± 1.3 µM
same,IC50,SW480,9.3 ± 1.7 µM
same,IC50,SW48,10.8 ± 1.5 µM
same,IC50,LS1034,31.9 ± 0.7 µM
same,IC50,NCI-H508,9.7 ± 1.2 µM
same,IC50,LS123,19.8 ± 0.5 µM
same,IC50,SW1417,15.1 ± 1.9 µM
same,IC50,LS174T,23.8 ± 2 µM
same,IC50,HCT8,20.1 ± 2 µM
same,IC50,SKCO1,12.1 ± 0.1 µM
same,IC50,Colo205,38.1 ± 4.4 µM
same,IC50,HT29,7 ± 1.1 µM
same,IC50,SW620,16.7 ± 1.4 µM
same,IC50,"26 CRC cell lines; more than 75% (20 of 26) of the CRC cell lines, read-out: IC50 in 20 of 26 CRC cell lines",< 25 µM
same,IC50,"26 CRC cell lines; range over 26 CRC cell lines, read-out: IC50 values across the 26 CRC cell lines",4.7 to 61 µM
